Test results published in article PMC10147923, “Pain-causing stinging nettle toxins target TMEM233 to modulate NaV1.7 function” (Nature Communications, 2023).
Values joined by “and” are separate entries in the source; they are usually repeats but may differ in a detail not shown here. Equal entries are not always repeated. Where two headings read alike, the source gives them in different places. Positions of bridges follow the written chain, without caps; N, C: chain ends. Residues, ends and D or L forms follow the SMILES beside them.

Columns and labels:
HEK293-NaV1.7 cells = assay type: cell-based, human; details: ExTxA 1 µM; for ΔF/F in NaV1.7 HEK293: mean, n = 3
Method: HEK293-NaV1.7 cells were transfected with TMEM233, CRELD1, LMAN2L, MMGT1, RNF121 and STT3B and co-transfected with five plasmids coding for the Glycosylphosphatidylinositol (GPI) complex (GPAA1, PIGK, PIGS, PIGU, PIGT) using Lipofectamine 2000. After 24 h, transfected cells were harvested and plated at a density of 10,000–15,000 cells per well on black-walled 384-well imaging plates. Plated cells were cultured for a further 24 h at 37 °C and 5% CO2. FLIPR (Fluorescent Imaging Plate Reader) Red membrane potential assay dye (Molecular Devices, California, USA) was diluted in physiological salt solution according to the manufacturer’s instructions (PSS, in mM: NaCl 140, glucose 11.5, HEPES 10, KCl 5.9, MgCl2 1.4, NaH2PO4 1.2, NaHCO3 5, CaCl2 1.8, pH 7.4). Growth medium was removed from the plate and replaced with 20 µL of FLIPR Red membrane potential assay dye per well and incubated in the dark at 37 °C for 60 min. […] Fluorescence responses to ExTxA were computed as the maximum change in fluorescence over baseline (ΔF/F0) using ScreenWorks (Molecular Devices, Version 5.1.2.94).

hNaV1.7 = test: Persistent current, CHO hNaV1.7, no β subunit; assay type: cell-based, human; details: ExTxA 1 µM
hNaV1.5 = test: Persistent current, HEK293-hNaV1.5/β1; assay type: cell-based, human; details: ExTxA 1 µM
[1] = test system: NaV currents in ND7/23 cells; test: Persistent current, ND7/23 cells; assay type: cell-based; details: ExTxA 1 µM; individual cells
hNaV1.8 = test: Persistent current, CHO-hNaV1.8/β3; assay type: cell-based, human; details: ExTxA 1 µM
hNaV1.7/TMEM233 = test: Persistent current, CHO hNaV1.7/TMEM233; assay type: cell-based, human; details: ExTxA 1 µM; hNaV1.7/TMEM233; mean ± SEM, n = 16
NaV1.7/PRRT2 = NaV1.7/PRRT2 (Homo sapiens, UniProt Q15858+Q7Z6L0); assay type: cell-based
Sequence of NaV1.7/PRRT2 (Q7Z6L0 whole entry): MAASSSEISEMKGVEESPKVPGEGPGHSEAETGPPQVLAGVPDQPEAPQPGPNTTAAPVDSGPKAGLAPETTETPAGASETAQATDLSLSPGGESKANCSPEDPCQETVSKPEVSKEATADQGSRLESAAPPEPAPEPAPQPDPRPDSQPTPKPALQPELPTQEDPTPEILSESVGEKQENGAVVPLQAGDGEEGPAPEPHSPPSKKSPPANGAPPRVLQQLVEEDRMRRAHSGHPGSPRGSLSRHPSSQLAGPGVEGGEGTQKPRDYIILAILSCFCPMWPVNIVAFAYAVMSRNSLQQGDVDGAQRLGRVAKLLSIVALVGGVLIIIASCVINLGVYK
Sequence of NaV1.7/PRRT2 (Q07699 19-218, further chain): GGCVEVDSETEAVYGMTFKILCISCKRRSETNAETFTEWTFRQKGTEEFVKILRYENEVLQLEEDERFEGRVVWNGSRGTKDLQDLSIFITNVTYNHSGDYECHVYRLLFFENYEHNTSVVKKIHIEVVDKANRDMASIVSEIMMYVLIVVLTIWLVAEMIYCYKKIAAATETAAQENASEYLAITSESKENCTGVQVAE
Sequence of NaV1.7/PRRT2 (Q15858 whole entry): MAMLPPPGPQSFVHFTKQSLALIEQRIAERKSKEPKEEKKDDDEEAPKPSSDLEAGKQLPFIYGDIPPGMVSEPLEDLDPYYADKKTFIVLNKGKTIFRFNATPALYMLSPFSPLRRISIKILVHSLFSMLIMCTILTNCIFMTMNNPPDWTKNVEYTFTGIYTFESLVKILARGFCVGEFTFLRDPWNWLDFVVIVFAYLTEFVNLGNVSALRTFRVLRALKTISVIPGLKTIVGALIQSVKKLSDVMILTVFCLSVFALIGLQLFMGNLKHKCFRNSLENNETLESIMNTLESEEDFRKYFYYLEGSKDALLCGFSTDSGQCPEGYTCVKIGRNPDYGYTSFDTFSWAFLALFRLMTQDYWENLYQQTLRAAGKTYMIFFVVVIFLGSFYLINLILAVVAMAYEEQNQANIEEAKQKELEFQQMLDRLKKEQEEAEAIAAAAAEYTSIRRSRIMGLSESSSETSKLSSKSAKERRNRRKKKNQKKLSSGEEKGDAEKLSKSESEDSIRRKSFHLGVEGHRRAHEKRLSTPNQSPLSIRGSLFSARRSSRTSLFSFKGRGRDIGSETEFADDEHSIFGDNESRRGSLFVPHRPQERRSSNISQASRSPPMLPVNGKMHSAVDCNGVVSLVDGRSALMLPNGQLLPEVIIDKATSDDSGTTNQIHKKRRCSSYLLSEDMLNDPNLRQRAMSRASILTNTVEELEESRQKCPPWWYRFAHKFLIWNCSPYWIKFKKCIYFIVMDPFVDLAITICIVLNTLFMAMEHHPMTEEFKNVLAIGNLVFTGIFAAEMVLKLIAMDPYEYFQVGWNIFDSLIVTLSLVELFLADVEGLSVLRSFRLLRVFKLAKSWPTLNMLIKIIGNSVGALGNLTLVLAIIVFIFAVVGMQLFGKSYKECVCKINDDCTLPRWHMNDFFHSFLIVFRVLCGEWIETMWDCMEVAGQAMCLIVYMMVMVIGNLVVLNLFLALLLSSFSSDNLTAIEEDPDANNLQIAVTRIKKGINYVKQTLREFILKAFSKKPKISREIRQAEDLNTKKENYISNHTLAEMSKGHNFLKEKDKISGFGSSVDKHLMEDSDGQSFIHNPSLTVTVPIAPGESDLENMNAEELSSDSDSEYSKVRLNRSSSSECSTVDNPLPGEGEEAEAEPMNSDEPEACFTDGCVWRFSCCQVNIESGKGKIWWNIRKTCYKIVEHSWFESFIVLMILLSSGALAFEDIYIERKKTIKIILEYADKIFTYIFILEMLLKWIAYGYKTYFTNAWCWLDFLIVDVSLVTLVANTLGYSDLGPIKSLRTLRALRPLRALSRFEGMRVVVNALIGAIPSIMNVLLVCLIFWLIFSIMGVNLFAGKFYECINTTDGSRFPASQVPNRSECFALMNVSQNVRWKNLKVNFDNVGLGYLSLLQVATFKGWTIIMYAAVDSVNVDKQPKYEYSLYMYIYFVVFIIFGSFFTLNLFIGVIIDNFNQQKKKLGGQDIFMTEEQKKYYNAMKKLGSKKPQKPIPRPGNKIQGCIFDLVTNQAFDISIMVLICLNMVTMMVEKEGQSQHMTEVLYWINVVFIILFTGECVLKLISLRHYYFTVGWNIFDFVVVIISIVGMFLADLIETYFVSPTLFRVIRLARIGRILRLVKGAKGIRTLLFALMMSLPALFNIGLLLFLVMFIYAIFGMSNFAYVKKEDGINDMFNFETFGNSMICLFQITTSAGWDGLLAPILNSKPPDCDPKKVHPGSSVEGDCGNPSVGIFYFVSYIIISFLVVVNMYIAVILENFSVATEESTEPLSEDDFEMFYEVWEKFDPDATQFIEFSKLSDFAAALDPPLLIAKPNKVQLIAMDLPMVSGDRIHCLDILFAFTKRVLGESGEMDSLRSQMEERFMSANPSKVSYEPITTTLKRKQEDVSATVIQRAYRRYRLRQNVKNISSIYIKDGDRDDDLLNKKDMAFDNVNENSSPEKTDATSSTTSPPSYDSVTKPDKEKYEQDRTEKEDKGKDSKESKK

NaV1.7/TMEM233 = NaV1.7/TMEM233 (Homo sapiens, UniProt B4DJY2+Q15858); assay type: cell-based; details: extracellular ExTxA
Method: To determine recovery from fast inactivation, a 20 ms pulse to 0 mV from a holding potential of −90 mV was used to induce fast inactivation. A subsequent recovery period, ranging from 1 ms to 2216 ms in 50% increments at −90 mV, was followed by a last 20 ms test pulses to 0 mV to determine the time-dependence of recovery from fast inactivation. The proportion of available channels was determined by normalizing peak currents from the last to the first pulse. A two-phase exponential equation was fit to the normalized current, plotted as a function of time, to determine the time constants τ1 and τ2 of recovery from fast inactivation.

NaV1.8 = assay type: cell-based, mouse
[2] = test system: total NaV current in Tmem233Cre/Cre DRG neurons; test: Persistent NaV current, Tmem233Cre/Cre DRG neurons; assay type: cell-based, mouse
hNaV1.2 = test: Persistent current, HEK293-hNaV1.2/β1; assay type: cell-based, human; details: ExTxA 1 µM; individual cells
[3] = test system: NaV1.7 endogenously expressed in TE-671 cells; test: Persistent NaV current, TE-671 cells (automated patch clamp); assay type: cell-based
TE-671 cells, TMEM233 KO = assay type: cell-based; details: ExTxA 1 µM
[4] = test system: total and TTX-s NaV current in wild-type DRG neurons; test: Persistent total NaV current, manual patch clamp, mouse DRG neurons; assay type: cell-based
wild-type C57BL/6 mice = details: cited from earlier work
[5] = test system: NaV currents in F11 cells; test: Persistent current, F11 cells; assay type: cell-based; details: ExTxA 1 µM; individual cells
NaV1.7 = NaV1.7 (Homo sapiens, UniProt Q15858); assay type: cell-based; details: ExTxA 100 nM; individual cells
Sequence of NaV1.7 (Q15858 whole entry): as above
Sequence of NaV1.7 (Q07699 19-218, further chain): as the sequence (Q07699 19-218, further chain) above

CC[C@H](C)[C@@H]1NC(=O)[C@H](CCCNC(=N)N)NC(=O)[C@H](Cc2ccccc2)NC(=O)[C@H](CC(C)C)NC(=O)[C@H](CO)NC(=O)[C@@H]2CSSC[C@@H]3NC(=O)[C@H]([C@@H](C)O)NC(=O)[C@H](CSSC[C@H](NC(=O)[C@H](CCCNC(=N)N)NC(=O)[C@@H]4CCCN4C(=O)[C@@H](N)CC(C)C)C(=O)N[C@@H](CC(=O)O)C(=O)N[C@@H](CO)C(=O)N4CCC[C@H]4C(=O)N[C@@H](Cc4ccccc4)C(=O)N2)NC(=O)[C@H](CCCCN)NC(=O)[C@H](CC(=O)O)NC(=O)CNC(=O)[C@H](CSSC[C@@H](C(=O)N[C@H](C(=O)N2CCC[C@H]2C(=O)N[C@@H](CC(=O)O)C(=O)N[C@H](C(=O)O)C(C)C)C(C)C)NC(=O)[C@H](CC(C)C)NC(=O)CNC(=O)[C@H](Cc2ccccc2)NC(=O)[C@H]([C@@H](C)CC)NC(=O)[C@@H]2CCCN2C(=O)[C@H](CC(C)C)NC(=O)[C@@H]2CCCN2C(=O)[C@H](C(C)C)NC3=O)NC(=O)[C@H](CC(C)C)NC(=O)CNC1=O [ExTxA, excelsatoxin A] (H-LPRCDSPFCSLFRIGLCGDKCTCVPLPIFGLCVPDV-OH; disulfide 4-21, 9-23, 17-32)
ΔF/F in NaV1.7 HEK293 (HEK293-NaV1.7 cells; Control (untransfected NaV1.7)): 0.016 ± 0.013 and 0.01598 | DF/F (HEK293-NaV1.7 cells; GPAA1+PIG K, S, T, U, replicate 1): -0.0084 | DF/F (HEK293-NaV1.7 cells; GPAA1+PIG K, S, T, U, replicate 2): -0.00023 | DF/F (HEK293-NaV1.7 cells; GPAA1+PIG K, S, T, U, replicate 3): -0.01147 | ΔF/F in NaV1.7 HEK293 (HEK293-NaV1.7 cells; Lman2L): 0.014 ± 0.0048 and 0.01413 | DF/F (HEK293-NaV1.7 cells; Lman2L, replicate 1): 0.02361 | DF/F (HEK293-NaV1.7 cells; Lman2L, replicate 2): 0.01087 | DF/F (HEK293-NaV1.7 cells; Lman2L, replicate 3): 0.007914 | DF/F (HEK293-NaV1.7 cells; Mmgt1, replicate 1): -0.00761 | DF/F (HEK293-NaV1.7 cells; Mmgt1, replicate 2): -0.00711 | DF/F (HEK293-NaV1.7 cells; Mmgt1, replicate 3): -0.00296 | DF/F (HEK293-NaV1.7 cells; RNF121, replicate 1): -0.01721 | DF/F (HEK293-NaV1.7 cells; RNF121, replicate 2): -0.01119 | DF/F (HEK293-NaV1.7 cells; RNF121, replicate 3): 0.007423 | ΔF/F in NaV1.7 HEK293 (HEK293-NaV1.7 cells; Stt3b): 0.013 ± 0.00098 and 0.01262 | DF/F (HEK293-NaV1.7 cells; Stt3b, replicate 1): 0.01077 | DF/F (HEK293-NaV1.7 cells; Stt3b, replicate 2): 0.013 | DF/F (HEK293-NaV1.7 cells; Stt3b, replicate 3): 0.01408 | DF/F (HEK293-NaV1.7 cells; Untransfected Nav1.7, replicate 1): 0.03099 | DF/F (HEK293-NaV1.7 cells; Untransfected Nav1.7, replicate 2): -0.01092 | DF/F (HEK293-NaV1.7 cells; Untransfected Nav1.7, replicate 3): 0.02788 | CHO cells persistent current (I40 ms) (hNaV1.7; hNaV1.7 alone, mean ± SEM, n = 6): 0.000 ± 0.002 nA | Δ persistent current (I40 ms/Ipeak) in CHO hNaV1.7 (hNaV1.7; no β subunit, mean, n = 12): 0.001 ± 0.004 and 0.0009513 | persistent current (I40 ms/Ipeak) (hNaV1.5; individual cells): 0.001512 and 0.003695 and 0.000623 and -0.00019 and 0.001997 and -0.00321 and -0.00096 and -7.2e-5 and 0.000901 and 0.000208 and 0.000397 | Δ persistent current (I40 ms/Ipeak; buffer cf. ExTxA) (hNaV1.5; mean): 0.0004 ± 0.0005 and 0.0003926 | persistent current (I40 ms/Ipeak) [1]: 0.0148 and -0.04643 and -0.01725 and -0.02481 and 0.06313 and -0.01347 and 0.009823 and -0.02206 and -0.05173 and 0.0293 and -0.02358 | persistent current (I40 ms/Ipeak) (hNaV1.8; individual cells): 0.04156 and 0.003935 and 0.01946 and 0.03094 and 0.03913 and 0.02554 | Δ persistent current (I40 ms/Ipeak; buffer cf. ExTxA) (hNaV1.8; mean): 0.027 ± 0.0057 and 0.02676 | CHO cells persistent current (I40 ms) (hNaV1.7/TMEM233): -2.010 ± 0.277 nA | LogEC50 (NaV1.7/PRRT2; Nav1.7/PRRT2, 95% CI -6.892 to -6.214, Fig 4g): -6.331 | HillSlope (NaV1.7/PRRT2; Nav1.7/PRRT2, Fig 4g): 0.9384 | Top (NaV1.7/PRRT2; Nav1.7/PRRT2, best-fit, constraint Top < 1, Fig 4g): 0.7711 | ExTxA-induced currents with PRRT2 (NaV1.7/PRRT2; co-expression with NaV1.7): resulted in ExTxA-induced persistent currents | time constants of recovery from inactivation (NaV1.7/TMEM233): a decrease in the time constants of recovery from inactivation | DRG NaV1.8 Δ persistent current (I40 ms/Ipeak) (NaV1.8): 0.050 ± 0.015 | persistent current, Mean diff, A2 - B2 [2]: 0.4591 | ExTxA-induced persistent current (I40ms/Ipeak; nA) in DRG neurons ([2]; ExTxA 30 nM, Tmem233Cre KO, mean ± SEM, n = 7): 0.114 ± 0.04 | persistent current (I40 ms/Ipeak) (hNaV1.2): -0.01884 and -0.01572 and 0.004985 and 0.03852 and -0.01184 and -0.02181 and 0.005193 and -0.01291 and 0.01563 and -0.00224 and -0.00414 | ExTxA-induced persistent current (I40 ms/Ipeak; nA) [3]: 0.8135 | persistent current (I40 ms/Ipeak) [3]: 0.8735 and 0.8209 and 0.7837 and 0.8022 and 0.7553 and 0.8064 and 0.8529 | Mean Diff. of persistent current, Buffer vs. ExTxA ([3]; ExTxA 100 nM): -0.2502 | TE-671 persistent current (I40 ms/Ipeak) ([3]; ExTxA 100 nM, individual cells): 0.226 and 0.2237 and 0.255 and 0.3482 and 0.2794 and 0.2574 and 0.2313 and 0.3524 | TE-671 persistent current (I40 ms/Ipeak) ([3]; ExTxA 100 nM, mean, n = 8): 0.272 ± 0.018 and 0.2717 | persistent current (I40 ms/Ipeak) ([3]; ExTxA 1 µM, individual cells): 0.6558 and 0.8078 and 0.6143 and 0.6966 and 0.7266 and 0.5751 and 0.7653 and 0.7674 and 0.8038 and 0.7341 and 0.767 | Δ persistent current (I40 ms/Ipeak; buffer cf. ExTxA) ([3]; ExTxA 1 µM, mean): 0.719 ± 0.0230 and 0.7194 | ExTxA-induced persistent current (I40 ms/Ipeak; nA) ([3]; ExTxA 1 µM, wildtype TE-671 (Fig. 3d), mean, n = 7): 0.81 ± 0.015 | Difference between means (B - A), TMEM233-/- minus wildtype (TE-671 cells, TMEM233 KO): -0.7661 ± 0.02026 | persistent current (I40 ms/Ipeak) (TE-671 cells, TMEM233 KO; TMEM233-/-, individual cells): 0.1031 and 0.03299 and 0.02248 and 0.06663 and 0.03142 and 0.02781 | DRG total persistent NaV current (I40 ms/Ipeak) ([4]; ExTxA 100 nM in 0.1% BSA, depolarization to -20 mV from -90 mV, mean, n = 6): 0.513 ± 0.10 and 0.5133 | Mean Diff. of persistent current, Control vs. ExTxA ([4]; ExTxA 100 nM, Tukey's multiple comparisons): -0.4859 | DRG total persistent NaV current (I40 ms/Ipeak) ([4]; ExTxA 100 nM, individual cells, one line per cell): 0.842 and 0.3774 and 0.8283 and 0.3793 and 0.3284 and 0.3245 | pain behavior after intraplantar administration in mice (wild-type C57BL/6 mice): elicits spontaneous pain behaviors and an axon reflex flare following intraplantar administration in mice | persistent current (I40 ms/Ipeak) [5]: 0.004557 and -0.00296 and -0.00917 and -0.00017 and -0.00072 and 0.02041 | hiPSC-derived sensory neurons persistent current (I40 ms/Ipeak) (NaV1.7): 0.1753 and 0.2081 and 0.0959 and 0.1857 and 0.092
